≈ marks a conversion by molar mass, not a printed value. Where “and” joins values, the source holds several entries; their conditions need not be identical. Identical values can stand only once. Like-named read-outs stand apart in the source and are kept apart here.
Key:
[1] = test system: Staphylococcus aureus X1.1; assay: MIC, standard agar-dilution assay, Staphylococcus aureus X1.1; format: cell-based
[2] = test system: Staphylococcus aureus V41; assay: MIC, standard agar-dilution assay, Staphylococcus aureus V41; format: cell-based; details: Staphylococcus aureus V41; penicillin-resistant strain; agar dilution; read-out: MIC
[3] = test system: Staphylococcus aureus X400; assay: MIC, standard agar-dilution assay, Staphylococcus aureus X400; format: cell-based; details: Staphylococcus aureus X400; methicillin-resistant strain; agar dilution; read-out: MIC
[4] = test system: Staphylococcus aureus S13E; assay: MIC, standard agar-dilution assay, Staphylococcus aureus S13E; format: cell-based; details: Staphylococcus aureus, S13E
[5] = test system: Staphylococcus epidermidis EPI1; assay: MIC, standard agar-dilution assay, Staphylococcus epidermidis EPI1; format: cell-based
[6] = test system: Streptococcus pyogenes C203; assay: MIC, standard agar-dilution assay, Streptococcus pyogenes C203; format: cell-based
[7] = test system: Streptococcus pneumoniae Park I; assay: microbe, parasite or virus in culture; format: cell-based
[8] = test system: Streptococcus Group D X66; assay: MIC, standard agar-dilution assay, Streptococcus Group D X66; format: cell-based; details: Streptococcus Group D X66; agar dilution; read-out: MIC
Streptococcus Group 9960 = assay: MIC, standard agar-dilution assay, Streptococcus Group 9960; format: cell-based; details: GROUP9960; Streptococcus Group 9960; agar dilution; read-out: MIC
[9] = test system: Haemophilus influenzae Holt; assay: MIC, standard agar-dilution assay, Haemophilus influenzae Holt; format: cell-based
[10] = test system: Haemophilus influenzae R252; assay: MIC, standard agar-dilution assay, Haemophilus influenzae R252; format: cell-based; details: Haemophilus influenzae R252; ampicillin-resistant strain; read-out: MIC
Staphylococcus aureus = assay: MIC, broth-dilution microtiter test, Staphylococcus aureus; format: cell-based; details: broth-dilution microtiter, read-out: MIC
Text: (§1) The MIC's in Table X were obtained using conventional broth-dilution microtiter tests.

Streptococcus bovis 80 = assay: MIC, broth-dilution microtiter test, Streptococcus bovis 80; format: cell-based; details: Streptococcus equinus
Text: as §1

[11] = test system: Pasteurella multocida 17E; assay: MIC, broth-dilution microtiter test, Pasteurella multocida 17E; format: cell-based; details: Pasteurella multocida 17E; bovine isolate; broth-dilution microtiter; read-out: MIC
Text: as §1

[12] = test system: Pasteurella multocida 60A; assay: MIC, broth-dilution microtiter test, Pasteurella multocida 60A; format: cell-based; details: Pasteurella multocida 60A; avian isolate; broth-dilution microtiter; read-out: MIC
Text: as §1

[13] = test system: Pasteurella hemolytica 22C; assay: MIC, broth-dilution microtiter test, Pasteurella hemolytica 22C; format: cell-based; details: Pasteurella hemolytica 22C; broth-dilution microtiter; read-out: MIC
Text: as §1

Mycoplasma gallisepticum = assay: MIC, broth-dilution microtiter test, Mycoplasma gallisepticum; format: cell-based; details: Mycoplasmoides gallisepticum; Mycoplasma gallisepticum; broth-dilution microtiter; read-out: MIC
Text: as §1

Mycoplasma hyorhinis = assay: MIC, broth-dilution microtiter test, Mycoplasma hyorhinis; format: cell-based; details: Mycoplasma
Text: as §1

Mycoplasma hyopneumoniae = assay: MIC, broth-dilution microtiter test, Mycoplasma hyopneumoniae; format: cell-based; details: Mesomycoplasma hyopneumoniae; Mycoplasma hyopneumoniae; broth-dilution microtiter; read-out: MIC
Text: as §1

[14] = test system: Streptococcus pyogenes C203; assay: In vivo protection of mice experimentally infected with S. pyogenes C203; details: Streptococcus pyogenes, mice, doses given 1 and 4 hours post-infection
Experimental: The C-20 modified derivatives of this invention have shown in vivo antimicrobial activity against experimentally-induced infections in laboratory animals. When two doses of test compound were administered to mice experimentally infected with S. pyogenes C203, the activity observed was measured as an ED50 value [effective dose in mg/kg to protect 50% of the test animals: see Warren Wick, et al., J. Bacteriol. 81, 233-235 (1961)].

Pasteurella multocida [15] = assay: Subcutaneous treatment of Pasteurella multocida-infected chicks; format: in vivo, one-day-old chicks
Experimental: (§2) Many of the C-20 modified derivatives of this invention have also shown in vivo antibacterial activity against infections induced by gram-negative bacteria. Tables XII and XIII summarize the results of tests in which illustrative compounds were evaluated against Pasteurella infection in one-day-old chicks. The compounds were administered parenterally or orally after challenge of the chicks with Pasteurella multocida (0.1 ml of a 10^-4 dilution of a twenty-hour tryptose broth culture of an avian P. multocida given subcutaneously). In these tests, unless indicated otherwise, all non-medicated infected chicks died within 24 hours of Pasteurella challenge. In the tests summarized in Table XII the compounds were administered by subcutaneous injection at a dosage of 30 mg/kg, 1 and 4 hours post-challenge of the chicks with P. multocida. In the test summarized in Table XIII the compounds were administered by gavage at 1 and 5 hours post-challenge of the chicks with P. multocida.

Pasteurella multocida [16] = assay: Oral (gavage) treatment of Pasteurella multocida-infected chicks; format: in vivo, one-day-old chicks
Experimental: as §2

[17] = test system: Staphylococcus epidermidis EPI2; assay: MIC, standard agar-dilution assay, Staphylococcus epidermidis EPI2; format: cell-based; details: Staphylococcus epidermidis EPI2; agar dilution; read-out: MIC
Mycoplasma synoviae = assay: MIC, broth-dilution microtiter test, Mycoplasma synoviae; format: cell-based; details: Mycoplasmopsis synoviae; Mycoplasma synoviae; broth-dilution microtiter; read-out: MIC
Text: as §1

[18] = C203, sc, subcutaneous, read-out: ED50, Subcutaneous
[19] = C203, oral, read-out: ED50, Oral
[20] = 30 mg/kg × 2, 1 and 4 hours post-challenge

Structure (SMILES) | MIC [2] | MIC [3] | MIC [4] | MIC [8] | MIC [10] | MIC (Staphylococcus aureus) | MIC [11] | MIC [12] | MIC [13] | MIC (Mycoplasma gallisepticum) | MIC (Mycoplasma hyorhinis) | MIC (Mycoplasma hyopneumoniae) | ED50 [14, 18] | ED50 [14, 19] | Number of Deaths/Number Treated (Pasteurella multocida [15]; [20]) | Number of Deaths/Number tested (Pasteurella multocida [16]; 1.0 g/gal equivalent) | further results
CCC1OC(=O)CC(O)C(C)C(OC2OC(C)C(O)C(N(C)C)C2O)C(CCCl)CC(C)C(=O)C=CC(C)=CC1COC1OC(C)C(O)C(OC)C1OC (stereo not drawn) [Compound 21, 20-DH-DO-20-Chlorodesmycosin] | 0.12 µg/mL (≈ 0.151 µM) | 0.5 µg/mL (≈ 0.631 µM) | 0.12 µg/mL (≈ 0.151 µM) | 8 µg/mL (≈ 10.1 µM) | 16 µg/mL (≈ 20.2 µM) | 0.78 µg/mL (≈ 0.984 µM) | 12.5 µg/mL (≈ 15.8 µM) | 6.25 µg/mL (≈ 7.89 µM) | 12.5 µg/mL (≈ 15.8 µM) | 0.39 µg/mL (≈ 0.492 µM) | 50 µg/mL (≈ 63.1 µM) | 12.5 µg/mL (≈ 15.8 µM) | 0.7 mg/kg | 6 mg/kg | 9/10 | 3/9 | MIC ([1]; Staphylococcus aureus, X1.1): 0.25 µg/mL (≈ 0.315 µM); MIC ([5]; Staphylococcus epidermidis EPI1, agar dilution, read-out: MIC): 0.12 µg/mL (≈ 0.151 µM); MIC ([6]; Streptococcus pyogenes, C203): 0.25 µg/mL (≈ 0.315 µM); MIC ([7]; Streptococcus pneumoniae Park I, agar dilution, read-out: MIC): 1 µg/mL (≈ 1.26 µM); MIC (Streptococcus Group 9960): 8 µg/mL (≈ 10.1 µM); MIC ([9]; Haemophilus influenzae): 16 µg/mL (≈ 20.2 µM); MIC (Streptococcus bovis 80; 80): 3.12 µg/mL (≈ 3.94 µM); Number of Deaths/Number Treated (Pasteurella multocida [15]; 30 mg/kg × 2, 8/10 infected nonmedicated chicks died in this test): 7/10; Number of Deaths/Number tested (Pasteurella multocida [16]; 2.0 g/gal equivalent): 0/9 and 0/10; Number of Deaths/Number tested (Pasteurella multocida [16]; 2.0 g/gal equivalent, 13/20 infected nonmedicated chicks died in this test): 2/10
CCC1OC(=O)CC(O)C(C)C(OC2OC(C)C(O)C(N(C)C)C2O)C(CCOC(C)=O)CC(C)C(=O)C=CC(C)=CC1COC1OC(C)C(O)C(OC)C1OC (stereo not drawn) [Compound 29, 20-DH-20-O-Acetyldesmycosin] | 0.5 µg/mL (≈ 0.613 µM) | 0.5 µg/mL (≈ 0.613 µM) | 0.25 µg/mL (≈ 0.306 µM) | 8 µg/mL (≈ 9.8 µM) | 16 µg/mL (≈ 19.6 µM) | 0.78 µg/mL (≈ 0.956 µM) | 12.5 µg/mL (≈ 15.3 µM) | 25 µg/mL (≈ 30.6 µM) | 25 µg/mL (≈ 30.6 µM) | 0.39 µg/mL (≈ 0.478 µM) | 50 µg/mL (≈ 61.3 µM) | 12.5 µg/mL (≈ 15.3 µM) | 3.4 mg/kg | 36 mg/kg | 5/10 | 3/10 | MIC ([1]; Staphylococcus aureus X1.1, agar dilution, read-out: MIC): 0.5 µg/mL (≈ 0.613 µM); MIC ([5]; Staphylococcus epidermidis, EPI1): 0.25 µg/mL (≈ 0.306 µM); MIC [17]: 0.12 µg/mL (≈ 0.147 µM); MIC ([6]; Streptococcus pyogenes C203, agar dilution, read-out: MIC): 2 µg/mL (≈ 2.45 µM); MIC ([7]; Streptococcus pneumoniae): 0.25 µg/mL (≈ 0.306 µM); MIC ([9]; Haemophilus influenzae Holt, ampicillin-sensitive strain, read-out: MIC): 16 µg/mL (≈ 19.6 µM); MIC (Streptococcus bovis 80; Streptococcus bovis 80, broth-dilution microtiter, read-out: MIC): 0.78 µg/mL (≈ 0.956 µM); MIC (Mycoplasma synoviae): 1.56 µg/mL (≈ 1.91 µM); Number of Deaths/Number tested (Pasteurella multocida [16]; 0.5 g/gal equivalent): 0/10

Reference: US4443436A, “C-20-Modified macrolide derivatives of the macrolide antibiotics tylosin, desmycosin, macrocin, and lactenocin” (Eli Lilly and Company, priority 1982, dated 1984)
